Measured values from PubChem BioAssay AID1204 (EPA DSSTox, 2008).
Records with an inconclusive call do not appear. Active and inactive are the calls of the source.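 How the source made its calls: active means relative estrogen receptor binding affinity above 1E-5, where estradiol scores 100; inconclusive means weak binder, under half inhibition at top dose, or affinity below 1E-5; inactive means no binding seen, affinity zero.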

System: estrogen receptor (rat uterine cytosol)
Assay: DSSTox (NCTRER) National Center for Toxicological Research Estrogen Receptor Binding Database;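 on relative binding affinity: ratio of estradiol IC50 over compound IC50 times 100 so estradiol equals 100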
Details: rat uterine cytosol ER competitive binding, RBA; for relative binding affinity: active compounds read high
From the text: Researchers within FDA's National Center for Toxicological Research (NCTR) generated a database of experimental estrogen receptor binding results for the express purpose of developing improved QSAR models to predict ER binding affinities.The NCTR ER database is a structurally diverse set of natural, synthetic, and environmental estrogens covering most known estrogenic classes and spanning a wide range of biological activity. It represents the largest published ER binding database of same-assay results generated in a single laboratory. […] Information on the percent purity and purchasing source for all chemicals are not included in the DSSTox SDF, but can be obtained from the original NCTR ER Source database and Main Citations listed below. The main citation (Fang et al., 2001) surveys the NCTR ER database from a chemical class based, structure-activity relationship (SAR) perspective. Qualitative SAR characteristics of the NCTR ER database are discussed and a set of general hierarchical rules for identifying potential estrogens are presented. The DSSTox NCTRER SDF augments the original NCTR ER database with chemical class and SAR information abstracted from Fang et al. (2001). The DSSTox SDF file supplements the measured ER relative binding affinity for each chemical (ER_RBA) with chemical class assignment to one of 6 major estrogenic classes further divided into 20 subclasses (ChemClass_ERB), along with a qualitative activity measure, ActivityCategory_ER_RBA. A brief narrative SAR rationale pertaining to ER RBA patterns observed by Fang et al. (2001) for each of the 20 subclasses within the database are provided in the field, ActivityCategory_Rationale_ChemClass_ERB. The original NCTR ER database, from which the expanded DSSTox NCTRER was formed, is contained within a larger Endocrine Disruptor Knowledge Base (EDKB) accessible from the FDA Source Website. That website provides online access to a relational database comprised of in vitro and in vivo experimental data for about 2000 natural and synthetic compounds, much of this extracted from the literature and representing testing in many laboratories. Data are included for biological assays that measure estrogenic and androgenic activity. Estrogenic endpoints include in vitro assays for estrogen receptor competitive binding affinity, cell proliferation, and reporter-gene assays, and in vivo assays for uterotrophic activity (i.e., uterine weight gain and vaginal cornification). The database also contains a bibliography of over 1200 citations, many of which include abstracts.
Estrogen receptor relative binding affinity is determined using a competitive receptor binding assay as described in NCTRER Ref (Blair et al., 2000). Briefly, a chemical competes with radiolabeled E2 (i.e., estradiol) for binding to the ER in rat uterine cytosol and the concentration of chemical that causes 50% inhibition of E2 binding (i.e., IC50) is measured. The ER_RBA is calculated by dividing the IC50 of E2 (9X10-10M) by the IC50 of the competitor and multiplying by 100 (E2 RBA = 100). The validated assay tested 1nM E2 with concentrations of competitor ranging from 1nM to 1mM. The larger the ER_RBA values, the greater the binding affinity; ER_RBA > 100 means compound has greater binding affinity than natural ER ligand, E2. […] Activity Score is mapping of LOG_ER_RBA values (ER-RBA>1E-5), spanning activity range [MIN, MAX] onto Integer 20-100 Activity range, where 100 is highest potency and 20 is lowest active potency. If Activity Outcome is "active": Activity Score = 80 * INTEGER[(LOG_ER_RBA - MIN)/(MAX […] MIN)]. If Activity Outcome is "inconclusive" (i.e., slight binder): Activity Score = 5.

[1] = ChemClass_ERB: Phenols Parabens
[2] = ChemClass_ERB: Phytoestrogens Flavanones
[3] = ChemClass_ERB: Steroids With aromatic A ring
[4] = ChemClass_ERB: Phenols Alkyloxy
[5] = ChemClass_ERB: DES Hexestrol derivatives
[6] = ChemClass_ERB: Diphenylmethanes Diphenolalkanes
[7] = ChemClass_ERB: Phytoestrogens Mycoestrogens
[8] = ChemClass_ERB: Diphenylmethanes DDTs
[9] = ChemClass_ERB: Steroids Without aromatic A ring
[10] = ChemClass_ERB: Phytoestrogens Flavones
[11] = ChemClass_ERB: Phytoestrogens Isoflavones
[12] = ChemClass_ERB: DES Triphenylethylenes

Cc1cc(O)ccc1Cl
relative binding affinity (ChemClass_ERB: Phenols Alkyl): 0.00041%

Oc1ccccc1Cl
outcome (ChemClass_ERB: Phenols Alkyl): inactive

CCc1cccc(C)c1N(C(=O)CCl)C(C)COC (stereo not given)
outcome (ChemClass_ERB: Misc): inactive

CCCCCCCOC(=O)c1ccc(O)cc1
relative binding affinity [1]: 0.00812%

O=C1CC(c2ccccc2)Oc2ccccc21 (stereo not given)
outcome [2]: inactive

Oc1ccccc1
outcome (ChemClass_ERB: Phenols Alkyl): inactive

C[C@]12CC[C@@H]3c4ccc(O)cc4C[C@@H](CCCCCCCCCS(=O)CCCC(F)(F)C(F)(F)F)[C@H]3[C@@H]1CC[C@@H]2O (stereo not given in full)
relative binding affinity [3]: 37.1%

O=C1CC(c2cccc(O)c2)Oc2ccccc21 (stereo not given)
relative binding affinity [2]: 0.00165%

Oc1ccc(-c2cc(Cl)ccc2Cl)cc1
relative binding affinity (ChemClass_ERB: Biphenyls PCBs): 0.0363%

CCC(C)(C)c1ccc(O)cc1
relative binding affinity (ChemClass_ERB: Phenols Alkyl): 0.00054%

Clc1ccc(-c2ccc(Cl)cc2)cc1
outcome (ChemClass_ERB: Biphenyls PCBs): inactive

COc1ccc2[nH]cc(CCNC(C)=O)c2c1
outcome (ChemClass_ERB: Misc): inactive

C[C@]12CC[C@@H]3c4ccc(O)cc4[C@@H](O)C[C@H]3[C@@H]1CC[C@@H]2O
relative binding affinity [3]: 0.708%

COC(=O)c1ccccc1C(=O)OC
outcome (ChemClass_ERB: Misc): inactive

Oc1ccc(OCc2ccccc2)cc1
relative binding affinity [4]: 0.00036%

Oc1ccc(/C=C/c2ccc(O)cc2)cc1
relative binding affinity (ChemClass_ERB: DES Derivatives): 0.282%

O=C(/C=C/c1ccccc1)c1ccccc1
relative binding affinity (ChemClass_ERB: Phytoestrogens Chalconoids): 0.00151%

C[C@]12CC[C@@H]3c4cc(O)c(O)cc4CC[C@H]3[C@@H]1CC[C@@H]2O
relative binding affinity [3]: 29.5%

C/C=C(/C(=C/C)c1ccc(O)cc1)c1ccc(O)cc1
relative binding affinity [5]: 37.1%

ClC1C(Cl)C(Cl)C(Cl)C(Cl)C1Cl (stereo not given)
outcome (ChemClass_ERB: Misc): inactive

CCC(c1ccc(O)c(O)c1)C(CC)c1ccc(O)c(O)c1 (stereo not given)
relative binding affinity [5]: 15.5%

COc1nc(NC(C)C)nc(NC(C)C)n1
outcome (ChemClass_ERB: Misc): inactive

Oc1ccccc1Cc1ccccc1O
outcome [6]: inactive

CCCCCCC=O
outcome (ChemClass_ERB: Misc): inactive

C[C@H]1CCCC(=O)CCCCCc2cc(O)cc(O)c2C(=O)O1
relative binding affinity [7]: 2.09%

CC12CCC(CC1)C(C)(C)O2
outcome (ChemClass_ERB: Misc): inactive

C(/C=C/c1ccccc1)=C\c1ccccc1
outcome (ChemClass_ERB: Misc): inactive

C=CCc1ccc(O)c(OC)c1
outcome [4]: inactive

C[C@H]1CCC[C@@H](O)CCCCCc2cc(O)cc(O)c2C(=O)O1
relative binding affinity [7]: 0.646%

Clc1ccc(C(c2ccc(Cl)cc2)C(Cl)(Cl)Cl)cc1
outcome [8]: inactive

CCC(C)(c1ccc(O)cc1)c1ccc(O)cc1
relative binding affinity [6]: 0.0851%

C[C@]12CC[C@@H](O)C[C@@H]1CC[C@@H]1[C@@H]2CC[C@]2(C)[C@@H](O)CC[C@@H]12
relative binding affinity [9]: 0.0021%

CC(=O)[C@H]1CC[C@H]2[C@@H]3CCC4=CC(=O)CC[C@]4(C)[C@H]3CC[C@]12C
outcome [9]: inactive

C[Si](C)(O[Si](C)(C)c1ccccc1)c1ccccc1
relative binding affinity (ChemClass_ERB: Misc): 0.00069%

O=c1cc(-c2ccccc2)oc2cc(O)ccc12
outcome [10]: inactive

O=c1cc(-c2ccccc2)oc2cc(O)c(O)c(O)c12
relative binding affinity [10]: 0.0009%

O=C1c2c(O)cc(O)cc2O[C@H](c2ccc(O)c(O)c2)[C@H]1O
outcome [2]: inactive

O=C1CCC(N2C(=O)c3ccccc3C2=O)C(=O)N1 (stereo not given)
outcome (ChemClass_ERB: Misc): inactive

C[C@]12CC[C@@H]3c4ccc(O)c(O)c4CC[C@H]3[C@@H]1CC[C@@H]2O
relative binding affinity [3]: 66.1%

CCc1cccc(O)c1
relative binding affinity (ChemClass_ERB: Phenols Alkyl): 0.00013%

NCCc1ccc(O)c(O)c1
outcome (ChemClass_ERB: Misc): inactive

Oc1ccc([C@H]2COc3cc(O)ccc3C2)cc1
relative binding affinity [11]: 0.151%

O=c1c(O)c(-c2ccc(O)cc2)oc2ccc(O)cc12
relative binding affinity [10]: 0.447%

CCC(c1ccc(O)cc1)C(CC)c1ccc(OC)cc1 (stereo not given)
relative binding affinity [5]: 9.33%

O=c1c(-c2ccc(O)cc2)coc2cc(O)ccc12
relative binding affinity [11]: 0.022%

COC(=O)c1ccc(O)cc1
relative binding affinity [1]: 0.00036%

CCCCCCCCOC(=O)c1ccccc1C(=O)OCCCCCCCC
outcome (ChemClass_ERB: Misc): inactive

O=C1C[C@@H](c2ccc(O)cc2)Oc2cc(O)cc(O)c21
relative binding affinity [2]: 0.0074%

CCNc1nc(Cl)nc(NC(C)C)n1
outcome (ChemClass_ERB: Misc): inactive

O=P(Oc1ccccc1)(Oc1ccccc1)Oc1ccccc1
outcome (ChemClass_ERB: Misc): inactive

C[C@H]1CCC[C@H](O)CCC/C=C/c2cc(O)cc(O)c2C(=O)O1
relative binding affinity [7]: 42.7%

Clc1ccc(C(c2ccccc2Cl)C(Cl)(Cl)Cl)cc1 (stereo not given)
relative binding affinity [8]: 0.00141%

CC(C)(c1ccccc1)c1ccc(O)cc1
relative binding affinity [6]: 0.00501%

COc1ccc(-c2coc3cc(O)ccc3c2=O)cc1
relative binding affinity [11]: 0.00104%

Clc1ccc(-c2ccccc2Cl)cc1
relative binding affinity (ChemClass_ERB: Biphenyls PCBs): 0.00024%

Clc1c(Cl)c(Cl)c(Cl)c(Cl)c1Cl
outcome (ChemClass_ERB: Misc): inactive

CCCCC(CC)COC(=O)CCCCC(=O)OCC(CC)CCCC (stereo not given)
outcome (ChemClass_ERB: Misc): inactive

O=S(=O)(O)c1ccc2c(N=Nc3ccc(S(=O)(=O)O)c4ccccc34)c(O)c(S(=O)(=O)O)cc2c1
outcome (ChemClass_ERB: Misc): inactive

Oc1cc(O)c2c(c1)O[C@H](c1ccc(O)c(O)c1)[C@@H](O)C2
outcome [2]: inactive

C[C@@H]1C[C@H]2[C@@H]3CCC4=CC(=O)C=C[C@]4(C)[C@@]3(F)[C@@H](O)C[C@]2(C)[C@@]1(O)C(=O)CO
outcome [9]: inactive

CC(C)CCCCCCOC(=O)c1ccccc1C(=O)OCCCCCCC(C)C
outcome (ChemClass_ERB: Misc): inactive

CC/C(=C(\c1ccccc1)c1ccc(OCCN(C)C)cc1)c1ccc(O)cc1
relative binding affinity [12]: 174%

C[C@H](Cc1ccc(O)c(O)c1)[C@H](C)Cc1ccc(O)c(O)c1
relative binding affinity (ChemClass_ERB: Misc): 0.0309%

CCC(c1ccc(O)cc1)C(CC)c1cc(C)c(O)c(C)c1 (stereo not given)
relative binding affinity [5]: 8.91%

O=C(O)CCCCCCC(=O)O
outcome (ChemClass_ERB: Misc): inactive

Oc1cccc(-c2ccccc2)c1
relative binding affinity (ChemClass_ERB: Biphenyls nonchlorinated): 0.00036%

CCOC(=O)c1ccccc1C(=O)OCC
outcome (ChemClass_ERB: Misc): inactive

c1ccc2c(c1)Cc1cc3ccccc3cc1-2
outcome (ChemClass_ERB: Misc): inactive

Oc1ccc(-c2ccc(Cl)cc2)cc1
relative binding affinity (ChemClass_ERB: Biphenyls PCBs): 0.0066%

O=C(OCc1ccccc1)c1ccc(O)cc1
relative binding affinity [1]: 0.00288%

O=C1C=CC(=C(c2ccc(O)cc2)c2ccc(O)cc2)C=C1
relative binding affinity [6]: 0.0316%

C(=C(c1ccccc1)c1ccccc1)c1ccccc1
relative binding affinity [12]: 0.00165%

O=S1(=O)OC(c2ccc(O)cc2)(c2ccc(O)cc2)c2ccccc21
relative binding affinity [6]: 0.00056%

C[C@@H]1CCC[C@H](O)CCC/C=C/c2cc(O)cc(O)c2C(=O)O1
relative binding affinity [7]: 0.204%

Oc1ccc(C(=C(Cl)Cl)c2ccc(O)cc2)cc1
relative binding affinity [8]: 2.63%
